# Experimental data reported in US8497276B2, “Substituted indolo-piperidine compounds” (ArQule, Inc., priority 2009, dated 2013).
# Key:
# Tec kinase = target: T1, Tec kinase (Homo sapiens, UniProt P42680); assay: Tec Kinase Activity Assay; type: biochemical; conditions: 75 μM ATP, Pyk-2 substrate; compound concentration not given
# T1 sequence (P42680 1-631): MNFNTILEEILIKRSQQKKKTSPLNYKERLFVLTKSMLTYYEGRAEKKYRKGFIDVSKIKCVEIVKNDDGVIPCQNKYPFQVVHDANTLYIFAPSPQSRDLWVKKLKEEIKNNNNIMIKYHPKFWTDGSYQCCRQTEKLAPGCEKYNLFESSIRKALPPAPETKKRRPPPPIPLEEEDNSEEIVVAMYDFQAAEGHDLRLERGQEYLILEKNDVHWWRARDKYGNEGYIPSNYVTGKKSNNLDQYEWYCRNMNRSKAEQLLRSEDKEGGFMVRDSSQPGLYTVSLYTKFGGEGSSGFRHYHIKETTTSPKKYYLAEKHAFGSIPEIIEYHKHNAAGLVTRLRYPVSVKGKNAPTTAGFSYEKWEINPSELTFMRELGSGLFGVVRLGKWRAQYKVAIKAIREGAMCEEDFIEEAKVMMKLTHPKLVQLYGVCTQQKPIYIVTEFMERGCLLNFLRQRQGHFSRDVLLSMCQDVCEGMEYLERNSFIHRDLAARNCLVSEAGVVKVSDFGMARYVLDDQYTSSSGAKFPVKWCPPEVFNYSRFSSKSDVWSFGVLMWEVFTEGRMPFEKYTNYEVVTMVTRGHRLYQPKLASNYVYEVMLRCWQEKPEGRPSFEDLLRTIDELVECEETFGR
# Protocol: The disclosed compounds were assayed for their ability to inhibit the activity of Tec kinase. Nunc Maxisorb plates were coated with streptavidin by overnight incubation with 100 μl per well of 1 μg/ml Streptavidin in DPBS. Prior to the start of the experiment, the plates were washed with TBST (3×200 μl) and blocked for at least 1 hour by adding 150 μl of 5% BSA/TBST. The plates were then washed with TBST (3×200 μl/well) and left dry immediately before the capture step.
# The disclosed test compounds and controls (Staurosporine and Sutent) were prepared using the following assay buffer (50 mM Tris-HCl, 0.02 mg/ml BSA, 10 mM MgCl2, 0.1 mM Na3VO4, 1 mM EGTA, 75 μM ATP, 0.01% NP-40, 2 mM DTT in 10% glycerol/water) at 3× desired final concentration. 20 μl of the test compounds (or control) and 20 μl TEC (0.25 ng/μl) were rapidly added to a reaction plate. The plate was incubated for 30 minutes. 20 μl of Pyk-2 (0.5 ng/μl) was then added to the reaction plate. The plate was incubated at room temperature for two hours.
# 50 μl was transferred from the reaction plate to the streptavidin coated plate. The capture plate was incubated at room temperature for 30 minutes then washed with TBST 6 times. 100 μl/well of Cell Signaling anti-phospho tyrosine was added to the capture plate at a dilution of 1:3000 in 2% BSA/TBST. The plate was incubated for one hour at room temperature then washed with TBST 6 times. 100 μl/well of alkaline phosphatase tagged goat anti-mouse antibody was added to the capture plate at a dilution of 1:4000 in 2% BSA/TBST. The plate was incubated for one hour at room temperature then washed with TBST 6 times.
# The fluorescent readout was initiated by the addition of 100 μl/well of Attophos reagent (6 mg/10 ml) and the reading was done on the Perkin Elmer Envision system.
# DLD-1 = assay: MTS Assay (cell growth inhibition), DLD-1; type: cell-based; conditions: DLD-1 cells, 72 hours with test compound; concentration not given
# Protocol: (§1) Cells were maintained at 37° C., 5% CO2 in DMEM media supplemented with 1% fetal bovine serum, penicillin/streptomycin and fungizone (Invitrogen). Cells were seeded into 96-well tissue culture plates at 3000 per well and cultured at 37° C. for 18 hours. Test compounds were dissolved and diluted to 300× in DMSO then diluted 1:40 in DMEM. Cells were incubated with test compounds for 72 hours followed by incubation with tetrazolium compound (3-(4,5-dimethylthiazol-2-yl)-5-(3-carboxymethoxyphenyl)-2-(4-sulfophenyl)-2H-tetrazolium, inner salt; MTS) and the electron coupling reagent, phenazine methosulfate (PMS) for 4 hours. […] The ability of compounds to inhibit cell growth in this assay is correlated with the reduction of dehydrogenase enzyme activity found in metabolically active cells. The measurement of the absorbance of the formazan was assessed using an ENVISION™ (Perkin Elmer) microplate reader at 492 nm. The calculated IC50 value is the concentration of the test compound that causes a 50% decrease in the absorbance.
# Kato III = assay: MTS Assay (cell growth inhibition), Kato III; type: cell-based; conditions: Kato III cells, 72 hours with test compound; concentration not given
# Protocol: as §1
# MDA-MB 231 = assay: MTS Assay (cell growth inhibition), MDA-MB 231; type: cell-based; conditions: MDA-MB 231 cells, 72 hours with test compound; concentration not given
# Protocol: as §1
# NCI-H1299 = assay: MTS Assay (cell growth inhibition), NCI-H1299; type: cell-based; conditions: NCI-H1299 cells, 72 hours with test compound; concentration not given
# Protocol: as §1
# PACA-2 = assay: MTS Assay (cell growth inhibition), PACA-2; type: cell-based; conditions: PACA-2 cells, 72 hours with test compound; concentration not given
# Protocol: as §1
# PC-3 = assay: MTS Assay (cell growth inhibition), PC-3; type: cell-based; conditions: PC-3 cells, 72 hours with test compound; concentration not given
# Protocol: as §1
SMILES,Biochemical IC50 (% inhibition) Tec (Tec kinase),MTS cell kill data (% inhibition) DLD-1 (DLD-1),MTS cell kill data (% inhibition) Kato III (Kato III),MTS cell kill data (% inhibition) MDA-MB 231 (MDA-MB 231),MTS cell kill data (% inhibition) NCI-H1299 (NCI-H1299),MTS cell kill data (% inhibition) PACA-2 (PACA-2),MTS cell kill data (% inhibition) PC-3 (PC-3)
"Cc1cccc(C2c3[nH]c4ccccc4c3CCN2c2ncnc3[nH]ccc23)c1 (stereo not drawn) [Compound 10, 1-(3-methylphenyl)-2-(7H-pyrrolo[2,3-d]pyrimidin-4-yl)-2,3,4,9-tetrahydro-1H-beta-carboline]",C (C = <50% inhibition),B (B = 50-79% inhibition),B (B = 50-79% inhibition),C (C = <50% inhibition),B (B = 50-79% inhibition),B (B = 50-79% inhibition),C (C = <50% inhibition)
"Nc1nc(N2CCc3c([nH]c4ccccc34)C2c2cccc(C(F)(F)F)c2)c2cn[nH]c2n1 (stereo not drawn) [Compound 7, 4-{1-[3-(trifluoromethyl)phenyl]-1,3,4,9-tetrahydro-2H-beta-carbolin-2-yl}-1H-pyrazolo[3,4-d]pyrimidin-6-amine]",C (C = <50% inhibition),C (C = <50% inhibition),C (C = <50% inhibition),B (B = 50-79% inhibition),C (C = <50% inhibition),C (C = <50% inhibition),A (A = 80-100% inhibition)
"FC(F)(F)c1cccc(C2c3[nH]c4ccccc4c3CCN2c2ncnc3[nH]ncc23)c1 (stereo not drawn) [Compound 9, 2-(1H-pyrazolo[3,4-d]pyrimidin-4-yl)-1-[3-(trifluoromethyl)phenyl]-2,3,4,9-tetrahydro-1H-beta-carboline]",B (B = 50-79% inhibition),B (B = 50-79% inhibition),B (B = 50-79% inhibition),B (B = 50-79% inhibition),B (B = 50-79% inhibition),B (B = 50-79% inhibition),C (C = <50% inhibition)
"Nc1nc(N2CCc3c([nH]c4ccccc34)C2CCc2ccccc2)c2nc[nH]c2n1 (stereo not drawn) [Compound 28, 6-[1-(2-phenylethyl)-1,3,4,9-tetrahydro-2H-beta-carbolin-2-yl]-9H-purin-2-amine]",C (C = <50% inhibition),B (B = 50-79% inhibition),C (C = <50% inhibition),C (C = <50% inhibition),B (B = 50-79% inhibition),C (C = <50% inhibition),C (C = <50% inhibition)
"Cc1cccc(C2c3[nH]c4ccccc4c3CCN2c2ncnc3[nH]ncc23)c1 (stereo not drawn) [Compound 12, 1-(3-methylphenyl)-2-(1H-pyrazolo[3,4-d]pyrimidin-4-yl)-2,3,4,9-tetrahydro-1H-beta-carboline]",B (B = 50-79% inhibition),B (B = 50-79% inhibition),A (A = 80-100% inhibition),B (B = 50-79% inhibition),B (B = 50-79% inhibition),C (C = <50% inhibition),C (C = <50% inhibition)
"COc1ccc(C2c3[nH]c4ccccc4c3CCN2c2ncnc3[nH]cnc23)cc1OC (stereo not drawn) [Compound 23, 1-(3,4-dimethoxyphenyl)-2-(9H-purin-6-yl)-2,3,4,9-tetrahydro-1H-beta-carboline]",C (C = <50% inhibition),B (B = 50-79% inhibition),B (B = 50-79% inhibition),C (C = <50% inhibition),B (B = 50-79% inhibition),B (B = 50-79% inhibition),C (C = <50% inhibition)
"Fc1c(Cl)cccc1C1c2[nH]c3ccccc3c2CCN1c1ncnc2[nH]cnc12 (stereo not drawn) [Compound 3, 1-(3-chloro-2-fluorophenyl)-2-(9H-purin-6-yl)-2,3,4,9-tetrahydro-1H-beta-carboline]",C (C = <50% inhibition),B (B = 50-79% inhibition),B (B = 50-79% inhibition),C (C = <50% inhibition),B (B = 50-79% inhibition),C (C = <50% inhibition),C (C = <50% inhibition)
"FC(F)(F)c1cccc(C2c3[nH]c4ccccc4c3CCN2c2ncnc3[nH]cnc23)c1 (stereo not drawn) [Compound 8, 2-(9H-purin-6-yl)-1-[3-(trifluoromethyl)phenyl]-2,3,4,9-tetrahydro-1H-beta-carboline]",C (C = <50% inhibition),A (A = 80-100% inhibition),A (A = 80-100% inhibition),A (A = 80-100% inhibition),A (A = 80-100% inhibition),B (B = 50-79% inhibition),A (A = 80-100% inhibition)
"Brc1n[nH]c2ncnc(N3CCc4c([nH]c5ccccc45)C3)c12 [Compound 1, 2-(3-bromo-1H-pyrazolo[3,4-d]pyrimidin-4-yl)-2,3,4,9-tetrahydro-1H-beta-carboline]",,B (B = 50-79% inhibition),A (A = 80-100% inhibition),C (C = <50% inhibition),B (B = 50-79% inhibition),B (B = 50-79% inhibition),C (C = <50% inhibition)
